According to US20050101632A1, “Method for the treatment of inflammation” (priority 2000, published 2005):

Test system: oxazolone-induced hypersensitivity reaction in oxazolone-sensitized mice
Assay: Oxazolone-induced delayed-type hypersensitivity (dermal sensitization) in mice
Type: in vivo, CD1 mice

## C[C@]12CCC(=O)C=C1CC[C@@H]1[C@@H]2[C@@H](O)C[C@@]2(C)[C@H]1CC[C@]2(O)C(=O)CO [hydrocortisone]
1% hydrocortisone topical during the challenges, FIG. 7
  body weight (systemic effect): decrease of body weight
First challenge (acute inflammation), 1% topical twice daily, FIG. 4
  suppression of mean increase of ear thickness (MIET): 74%
First challenge, topical twice daily
  erythema of the ear: reduced erythema of the ear
